# Test results reported in PubChem BioAssay AID1259408 (Genetic Toxicology Data Bank (GENE-TOX), 2018).
# Calls of active or inactive are those of the source. How the calls were made is not given here.
# System: GENE-TOX genotoxicity assays, various organisms and cells
# Assay: GENE-TOX mutagenicity studies
# Conditions: for call: Assay Type: In vivo carcinogenicity studies
# [1] = Species/Cell Type: Bacillus subtilis (H17 vs M45), Assay Type: Rec-assay, spot test, DNA effects (bacterial DNA repair), Assay Code: REWT, Evaluation Type: Evaluation A (Pre-1980)
# [2] = Species/Cell Type: Escherichia coli WP2, Assay Type: Tryptophan reverse gene mutation, Assay Code: WP2-, Evaluation Type: Evaluation A (Pre-1980)
# [3] = Species/Cell Type: Salmonella typhimurium (one or more of the five standard strains: TA98, TA100, TA1535, TA1537, and TA1538), Assay Type: Histidine reverse gene mutation, Ames assay, Assay Code: SAL+, Evaluation Type: Evaluation A (Pre-1980)
# [4] = Species/Cell Type: Drosophila melanogaster, Assay Type: Sex-linked recessive lethal gene mutation, Assay Code: SRLT, Evaluation Type: Evaluation A (Pre-1980)
# [5] = Species/Cell Type: Bacillus subtilis (H17 vs M45), Assay Type: Rec-assay, spot test, DNA effects (bacterial DNA repair), Assay Code: REW+, Evaluation Type: Evaluation A (Pre-1980)
# [6] = Species/Cell Type: Human, Assay Type: Sister-chromatid exchange (SCE) in vitro, Assay Code: SC1+, Evaluation Type: Evaluation B (Post-1980)
# [7] = Species/Cell Type: Nonhuman, Assay Type: Sister-chromatid exchange (SCE) in vitro, Assay Code: SC2+, Evaluation Type: Evaluation B (Post-1980)
# [8] = Species/Cell Type: Salmonella typhimurium (one or more of the five standard strains: TA98, TA100, TA1535, TA1537, and TA1538), Assay Type: Histidine reverse gene mutation, Ames assay, Assay Code: SALT, Evaluation Type: Evaluation A (Pre-1980)
# [9] = Species/Cell Type: Nonhuman, Assay Code: CCG+L, Evaluation Type: Evaluation A (Pre-1980)
# [10] = Species/Cell Type: Nonhuman, Assay Type: Sister-chromatid exchange (SCE) in vitro, Assay Code: SC2+D, Dose Response: With dose response, Evaluation Type: Evaluation B (Post-1980)
# [11] = Species/Cell Type: Escherichia coli polA (W3119 vs P3478), Assay Type: Rec-assay, DNA effects (bacterial DNA repair), Assay Code: RE1T, Evaluation Type: Evaluation A (Pre-1980)
# [12] = Species/Cell Type: Human diploid fibroblasts, Assay Type: Unscheduled DNA synthesis (UDS) in vitro, DNA effects, Assay Code: UDH-, Evaluation Type: Evaluation A (Pre-1980)
structure (smiles),measurement,setting,value
CNC(=O)Oc1ccccc1OC(C)C,mutagenic call,[1],no conclusion
same,mutagenic call,"Species/Cell Type: Bacillus subtilis (H17 vs M45T), Assay Type: Rec-assay, spot test, DNA effects (bacterial DNA repair), Assay Code: REX-, Evaluation Type: Evaluation A (Pre-1980)",inactive; negative
same,mutagenic call,[2],inactive; negative
same,mutagenic call,"Species/Cell Type: Saccharomyces cerevisiae, Assay Type: Mitotic recombination or gene conversion, Assay Code: YEC-, Evaluation Type: Evaluation A (Pre-1980)",inactive; negative
COc1cc2c(c(O)c1O)C(=O)c1c(O)cc(C)cc1C2=O,mutagenic call,[3],active; positive
FC(F)F,mutagenic call,[4],no conclusion
S=C1SSC2=NCCN12,mutagenic call,[5],active; positive
same,mutagenic call,"Species/Cell Type: Human lymphocytes, Assay Type: Sister-chromatid exchange (SCE) in vitro, Assay Code: SCL+, Evaluation Type: Evaluation B (Post-1980)",active; positive
same,mutagenic call,[6],active; positive
N#Cc1cccc2c([N+](=O)[O-])cccc12,mutagenic call,"Species/Cell Type: Bacillus subtilis (H17 vs M45T), Assay Type: Rec-assay, spot test, DNA effects (bacterial DNA repair), Assay Code: REXT, Evaluation Type: Evaluation A (Pre-1980)",no conclusion
same,mutagenic call,[2],inactive; negative
same,mutagenic call,"Species/Cell Type: Escherichia coli WP2 UVRA, Assay Type: Tryptophan reverse gene mutation, Assay Code: WPU+, Evaluation Type: Evaluation A (Pre-1980)",active; positive
same,mutagenic call,[7],active; positive
same,mutagenic call,[3],active; positive
N=c1ccc2nc3ccc(N)cc3sc-2c1,mutagenic call,"Species/Cell Type: Bacillus subtilis (H17 vs M45), Assay Type: Rec-assay, spot test, DNA effects (bacterial DNA repair), Assay Code: REW-, Evaluation Type: Evaluation A (Pre-1980)",inactive; negative
same,mutagenic call,[4],no conclusion
same,mutagenic call,"Species/Cell Type: Saccharomyces cerevisiae, Assay Type: Mitotic recombination or gene conversion, Assay Code: YECT, Evaluation Type: Evaluation A (Pre-1980)",no conclusion
NCCBr,mutagenic call,"Species/Cell Type: Schizosaccharomyces pombe, Assay Type: Reverse gene mutation, Assay Code: YEZ+, Evaluation Type: Evaluation A (Pre-1980)",active; positive
F[Si-2](F)(F)(F)(F)F,mutagenic call,"Species/Cell Type: Mammalian polychromatic erythrocytes, Assay Type: Micronucleus test, chromosome aberrations, Assay Code: MNTT, Evaluation Type: Evaluation B (Post-1980)",no conclusion
Cc1cc(C)cc(O)c1,mutagenic call,"Species/Cell Type: Allium cepa, Assay Type: Chromosome aberrations, Assay Code: ALCT, Evaluation Type: Evaluation A (Pre-1980)",no conclusion
CC(=O)N(OS(=O)(=O)O)c1ccc2c(c1)Cc1ccccc1-2,mutagenic call,[4],no conclusion
Oc1ccc(Cl)cc1Cl,mutagenic call,[8],no conclusion
CC(C)C[C@H](NP(=O)(O)O[C@@H]1O[C@@H](C)[C@H](O)[C@@H](O)[C@H]1O)C(=O)N[C@@H](Cc1c[nH]c2ccccc12)C(=O)O,mutagenic call,"Species/Cell Type: Human, Assay Type: Sister-chromatid exchange (SCE) in vitro, Assay Code: SC1T, Evaluation Type: Evaluation B (Post-1980)",no conclusion
CC(=O)Nc1ccc(N=Nc2cc(C)ccc2O)cc1,call,"Species/Cell Type: Nonhuman, Assay Code: CCG+, Evaluation Type: Evaluation A (Pre-1980)",active; positive
C1=CC2OC2c2cc3ccc4cccc5ccc(c21)c3c45 (configuration not stated),mutagenic call,"Species/Cell Type: Chinese hamster lung (V79) cells, Assay Type: Forward gene mutation at the HPRT or ouabain locus, Assay Code: V79-, Evaluation Type: Evaluation A (Pre-1980)",inactive; negative
same,call,[9],active; positive
same,mutagenic call,[10],active; positive
same,mutagenic call,[3],active; positive
O=C(O)C(=O)c1ccc(Cl)cc1,mutagenic call,"Species/Cell Type: Nonhuman, Assay Type: Sister-chromatid exchange (SCE) in vitro, Assay Code: SC2-, Evaluation Type: Evaluation B (Post-1980)",inactive; negative
CCOP(=S)(OCC)Oc1cc(C)nc(C(C)C)n1,mutagenic call,[1],no conclusion
same,mutagenic call,"Species/Cell Type: Escherichia coli WP2 UVRA, Assay Type: Tryptophan reverse gene mutation, Assay Code: WPU-*, Activation: With metabolic activation, Evaluation Type: Evaluation A (Pre-1980)",inactive; negative
same,mutagenic call,[11],no conclusion
same,mutagenic call,[12],inactive; negative
same,mutagenic call,[6],active; positive
same,call,"Species/Cell Type: Nonhuman, Assay Code: CCG-, Evaluation Type: Evaluation A (Pre-1980)",inactive; negative
same,mutagenic call,[7],active; positive
same,mutagenic call,"Species/Cell Type: Saccharomyces cerevisiae, Assay Type: Mitotic recombination or gene conversion, Assay Code: YEH-, Evaluation Type: Evaluation A (Pre-1980)",inactive; negative
same,mutagenic call,"Species/Cell Type: Salmonella typhimurium (one or more of the five standard strains: TA98, TA100, TA1535, TA1537, and TA1538), Assay Type: Histidine reverse gene mutation, Ames assay, Assay Code: SAL-, Evaluation Type: Evaluation A (Pre-1980)",inactive; negative
CCCN(CCC)C(=O)SCC (tested in a mixture with another compound),mutagenic call,"Species/Cell Type: Zea mays (corn), Assay Type: Gene mutation, Assay Code: ZEM-, Evaluation Type: Evaluation A (Pre-1980)",inactive; negative
Cc1ccc(O)c(C)c1,mutagenic call,"Species/Cell Type: Human lymphocytes, Assay Type: Sister-chromatid exchange (SCE) in vitro, Assay Code: SCLT, Evaluation Type: Evaluation B (Post-1980)",no conclusion
O=C[C@H](NC(=O)N(CCCl)N=O)[C@@H](O)[C@H](O)[C@H](O)CO,mutagenic call,"Species/Cell Type: Chinese hamster lung (V79) cells, Assay Type: Forward gene mutation at the HPRT or ouabain locus, Assay Code: V79+, Evaluation Type: Evaluation A (Pre-1980)",active; positive
same,mutagenic call,"Species/Cell Type: Drosophila melanogaster, Assay Type: Sex-linked recessive lethal gene mutation, Assay Code: SRL+, Evaluation Type: Evaluation A (Pre-1980)",active; positive
same,call,[9],active; positive
same,mutagenic call,[10],active; positive
same,mutagenic call,"Species/Cell Type: Saccharomyces cerevisiae, Assay Type: Mitotic recombination or gene conversion, Assay Code: YEC+, Evaluation Type: Evaluation A (Pre-1980)",active; positive
CN(Cc1cnc2nc(N)nc(N)c2n1)c1ccc(C(=O)N[C@@H](CCC(=O)O)C(=O)O)cc1,mutagenic call,"Species/Cell Type: Arabidopsis species, Assay Type: Gene mutation, Assay Code: ARM-, Evaluation Type: Evaluation A (Pre-1980)",inactive; negative
same,mutagenic call,"Species/Cell Type: Escherichia coli WP2, Assay Type: Tryptophan reverse gene mutation, Assay Code: WP2+, Evaluation Type: Evaluation A (Pre-1980)",active; positive
same,mutagenic call,[11],no conclusion
same,mutagenic call,[12],inactive; negative
same,mutagenic call,"Species/Cell Type: Human lymphocytes, Assay Type: Sister-chromatid exchange (SCE) in vivo, Assay Code: SCY+, Evaluation Type: Evaluation B (Post-1980)",active; positive
same,mutagenic call,"Species/Cell Type: Human, Sex: Male, Assay Type: Sperm morphology, Assay Code: SPH+, Evaluation Type: Evaluation A (Pre-1980)",active; positive
same,mutagenic call,"Species/Cell Type: Mammalian oocytes or early embryo, Assay Type: Chromosome aberrations in vivo, Assay Code: CYO+D, Dose Response: With dose response, Evaluation Type: Evaluation A (Pre-1980)",active; positive
same,mutagenic call,"Species/Cell Type: Mammalian polychromatic erythrocytes, Assay Type: Micronucleus test, chromosome aberrations, Assay Code: MNT+, Evaluation Type: Evaluation A (Pre-1980)",active; positive
same,mutagenic call,"Species/Cell Type: Mouse (C3H/10T1/2) cells, Assay Type: Cell transformation, Assay Code: CTH+D, Dose Response: With dose response, Evaluation Type: Evaluation A (Pre-1980)",active; positive
same,mutagenic call,"Species/Cell Type: Mouse lymphoma (L5178Y) cells, Assay Type: Forward gene mutation at the thymidine kinase (TK) locus, chromosome aberrations, Assay Code: L51+, Evaluation Type: Evaluation A (Pre-1980)",active; positive
same,mutagenic call,"Species/Cell Type: Neurospora crassa, Assay Type: Aneuploidy, chromosome aberrations, Assay Code: NEN+, Evaluation Type: Evaluation A (Pre-1980)",active; positive
same,mutagenic call,"Species/Cell Type: Nonhuman, Assay Type: Chromosome aberrations in vitro, Assay Code: CY&+D, Dose Response: With dose response, Evaluation Type: Evaluation A (Pre-1980)",active; positive
same,call,"Species/Cell Type: Nonhuman, Assay Code: CCG-L, Evaluation Type: Evaluation A (Pre-1980)",inactive; negative
same,mutagenic call,"Species/Cell Type: Nonhuman, Assay Type: Sister-chromatid exchange (SCE) in vitro, Assay Code: SC2+, Evaluation Type: Evaluation A (Pre-1980)",active; positive
same,mutagenic call,"Species/Cell Type: Rodents, Sex: Male, Assay Type: Dominant lethal test, Assay Code: DLTT, Evaluation Type: Evaluation A (Pre-1980)",no conclusion
same,mutagenic call,"Species/Cell Type: Saccharomyces cerevisiae, Assay Type: Mitotic recombination or gene conversion, Assay Code: YEH+, Evaluation Type: Evaluation A (Pre-1980)",active; positive
same,mutagenic call,[8],no conclusion
same,mutagenic call,"Species/Cell Type: Serratia marcesens, Assay Type: Reverse gene mutation, host-mediated assay, Assay Code: HMC+, Evaluation Type: Evaluation A (Pre-1980)",active; positive
same,mutagenic call,"Species/Cell Type: Syrian hamster embryo (SHE) cells, Assay Type: Cell transformation, clonal assay, Assay Code: CTC-, Evaluation Type: Evaluation A (Pre-1980)",inactive; negative
C=CC1C(C)OC(=O)C1C(C)=O (configuration not stated),mutagenic call,"Species/Cell Type: Allium cepa, Assay Type: Chromosome aberrations, Assay Code: ALC+, Evaluation Type: Evaluation A (Pre-1980)",active; positive
O=[N+]([O-])c1ccc(N=Nc2c(O)ccc3ccccc23)c([N+](=O)[O-])c1,mutagenic call,[3],active; positive
Cl[Te](Cl)(Cl)Cl,mutagenic call,[5],active; positive
